Converted amounts (≈) assume the structure as drawn. Where two headings read alike, the source gives them in different places.
What was measured:
[1] = for CL mouse MEAN: microsomes
M. tuberculosis H37Rv = experiment: microbe, parasite or virus in culture; type: cell-based, Mycobacterium tuberculosis; conditions: Mycobacterium tuberculosis, H37RV; for MIC90: read-out: MIC (MIC90); for IC90: read-out: TB-IC90_OD GEOM_MEAN
Vero cells = experiment: cells; conditions: Chlorocebus sabaeus, read-out: VERO IC50
Protocol: Compounds were solubilized in DMSO and assayed as a 10-point 3-fold serial dilution. Compounds were incubated with cells for 2 days at 37 °C, 5% CO2. CellTiter-Glo Reagent (Promega) was added and relative luminescent units (RLU) measured.

Row | SMILES | Cli mouse ([1]; female, CD1, mouse, pH 7.4) [mL.min^–1.g^–1] | MIC90 (M. tuberculosis H37Rv) [µM] | IC50 (Vero cells) [µM] | CL mouse MEAN ([1]; mouse) [mL/min/g] | chromatographic logD (physchem) | IC90 (M. tuberculosis H37Rv) [µM] | CL mouse MEAN ([1]; female, CD1, mouse, pH 7.4) [mL/min/g]
1 | COC(=O)c1sc(N2CCOCC2)cc1OCCc1ccccc1 [Compound 14, Methyl 5-Morpholino-3-(2-phenylethoxy)thiophene-2-carboxylate] | 50 | > 20 | > 100 | – | – | – | –
2 | NC(=O)c1sccc1OCCc1ccccc1 [Compound 27, 3-(2-Phenylethoxy)thiophene-2-carboxamide] | 26 | > 20 | > 100 | 26 | 2.05 | > 20 | –
3 | COc1ccc(CCOc2cc(N3CCOCC3)sc2C(N)=O)cc1 [Compound 36, 3-[2-(4-Methoxyphenyl)ethoxy]-5-morpholinothiophene-2-carboxamide] | 5.7 | 0.63 (≈ 0.228 µg/mL) | > 100 | 5.742 | 1.73 | 0.57 | –
4 | NC(=O)c1sc(N2CCOCC2)cc1OCCc1ccc(F)cc1 [Compound 40] | 13 | 0.9 (≈ 0.315 µg/mL) | > 100 | – | 1.85 | – | 12.72
5 | COc1cccc(CCOc2cc(N3CCOCC3)sc2C(N)=O)c1 [Compound 41, 3-[2-(3-Methoxyphenyl)ethoxy]-5-morpholinothiophene-2-carboxamide] | 10 | 1.6 (≈ 0.58 µg/mL) | 89 | 10.31 | 1.85 | – | –
6 | COc1ccccc1CCOc1cc(N2CCOCC2)sc1C(N)=O [Compound 42, 3-[2-(2-Methoxyphenyl)ethoxy]-5-morpholinothiophene-2-carboxamide] | 26 | > 20 | > 100 | 26.42 | 1.95 | – | –
7 | NC(=O)c1sc(N2CCOCC2)cc1OCCc1ccncc1 [Compound 43, 5-Morpholino-3-[2-(4-pyridyl)ethoxy]thiophene-2-carboxamide] | 8 | > 20 | > 100 | 8.013 | 0.617 | – | –
8 | N#Cc1ccc(CCOc2cc(N3CCOCC3)sc2C(N)=O)cc1 [Compound 44, 3-[2-(4-Cyanophenyl)ethoxy]-5-morpholino-thiophene-2-carboxamid] | 4.8 | 14 (≈ 5 µg/mL) | > 100 | 4.758 | 1.56 | – | –
9 | NC(=O)c1sc(N2CCOCC2)cc1OCC1CCCO1 (stereo not drawn) [Compound 45, 5-Morpholino-3-((tetrahydrofuran-2-yl)methoxy)thiophene-2-carboxamide] | 4.3 | > 20 | > 100 | 4.249 | – | – | –
10 | NC(=O)c1sc(N2CCOCC2)cc1OCCN1CCOCC1 [Compound 47, 5-Morpholino-3-(2-morpholinoethoxy)thiophene-2-carboxamide] | 0.9 | > 20 | > 100 | 0.8847 | 0.189 | – | –
11 | NC(=O)c1sc(N2CCOCC2)cc1OCc1ccccc1 [Compound 48, 3-Benzyloxy-5-morpholinothiophene-2-carboxamide] | 14 | > 20 | > 100 | 14.31 | 1.52 | – | –
12 | NC(=O)c1sc(N2CCOCC2)cc1CCCc1ccccc1 [Compound 49, 5-Morpholino-3-(3-phenylpropyl)thiophene-2-carboxamide] | 20 | 3.5 (≈ 1.16 µg/mL) | 69 | 20.17 | – | – | –
13 | NC(=O)c1sc(N2CCOCC2)cc1OCC(O)c1ccccc1 (stereo not drawn) [Compound 51, 3-(2-Hydroxy-2-phenylethoxy)-5-morpholinothiophene-2-carboxamine] | 3.8 | > 20 | > 100 | 3.788 | 1.12 | – | –

Reference: paper PMC6089501 (Journal of Medicinal Chemistry, 2018)
